Key:
cytokine-stimulated VSMC = experiment: Effect of arginine oligomers on NO production (NO2, Griess reaction) in cytokine-stimulated VSMC; format: cell-based, rat
Method: (§1) Rat VSMCs were prepared from the media layer of thoracic aorta of Sprague-Dawley rats by the explant method. The cells were cultured in Dulbecco's modified Eagle's medium (DMEM, Gibco BRL, Gaithersburg, MD) containing 10% fetal calf serum, 100U/ml penicillin and 100µg/ml streptomycin at 37°C under a humidified atmosphere containing 5% CO2. After subconfluent growth, cells were cultured with MEM Select Amine Kit (Gibco BRL, Gaithersburg, MD) to be treated by specific concentrations of extracellular free L-arginine. Experiments were performed using cultured cells at passage levels of 5-10.
Extracellular NO production was measured as its stable oxidative metabolite, nitrite (NO2). At the end of each incubation, samples of the medium (80µl) were collected, and NO2 measurement was performed using the Griess reaction facilitated by a commercial colorimetric assay (Cayman Chemical, Ann Arbor, MI). Values of NO2 production were corrected with relative cell count assessed by a cell proliferation kit II (XTT) (Boeheringer Mannheim, Germany).
Subconfluent cells were pre-incubated with medium containing 100µM arginine for 24 hours. […] After translocation, the cells were incubated with a mixture of IFN-γ (100U/ml) and LPS (100µg/ml) in medium containing 100µM L-arginine for another 24 hours. In some experiments, L-NMMA (1mM), a nitric oxide synthase inhibitor, was added to the medium.

rat VSMC = experiment: Stimulation of VSMC with interferon-γ and LPS, dependence of NO2 production on cytokine and L-arginine; format: cell-based; details: extracellular L-arginine over the range of 0 to 10mM, IFN-γ (100U/ml) and LPS (100µg/ml) 24 hours
Method: as §1
Extracellular NO production was measured as its stable oxidative metabolite, nitrite (NO2). […] Values of NO2 production were corrected with relative cell count assessed by a cell proliferation kit II (XTT) (Boeheringer Mannheim, Germany).
Cells were plated at a density of 5 × 10^3 per well into 96-well plates. […] After 24 hours of incubation, the cells were then treated with a mixture of IFN-γ (100U/ml) and LPS (100µg/ml) in the medium containing the same dose of L-arginine for another 24 hours, and nitrite (NO2) accumulation in the culture medium was quantified.
No detectable NO2 was measured in the medium of non-stimulated VSMC. When cells were stimulated with a mixture of IFN-γ (100U/ml) and LPS ([…]), a significant amount of NO2 was detected in the medium (14.7 ± 0.3 µM / 10^5 cells / 24 hours). […]

[1] = test system: rabbit carotid artery segment; experiment: Ex vivo translocation of biotin-labeled peptides into carotid artery segments; design: species or system New Zealand white rabbits; details: reincubated in DMEM with 10% FBS; for positive staining (internalized biotin): day 5 after exposure (10.0 µM, 30 minutes)
Method: After incubation with biotin labeled oligomer, vascular segments were washed, then frozen in OCT compound (Miles Scientific). Frozen sections, 5 µm thick, were fixed with acetone for 10 minutes. Internalized biotin was detected using the staining procedure described in Example 2. Methyl green was used for nuclear counter staining.
To quantify the efficiency of nuclear translocation, the numbers of both DAB positive nuclei and total nuclei were counted in the intima and media separately at X400 magnification with a video image analysis system (Automatrix). The frequency of nuclear translocation was expressed as the percent staining of nuclei, defined as the ratio of the number of DAB positive nuclei to that of all nuclei, in the intima and media. Each protocol was repeated 4 times.
Both carotid artery and jugular vein segments of male New Zealand white rabbits were used. To test the dose dependence of R7 translocation, vascular segments were incubated for 30 minutes with either bL-R7 or bD-R7 solution (0.1, 1.0, and 10.0 µM) in serum-free Dulbecco's minimal essential medium (DMEM) (Gibco BRL). To test the incubation time dependence, vascular segments were incubated with 10.0 µM of biotin labeled R7 solution for 10 seconds, 60 seconds, 5 minutes, 10 minutes, and 30 minutes. Furthermore, to determine the ability of R7 to penetrate through the vessel wall, vascular segments were ligated one end, R7 containing medium was instilled, and the other end ligated so as to expose only the luminal surface to R7. The luminal surface of the vascular segment was exposed to bL-R7 or bD-R7 (10.0 µM) for 30 minutes. To test the temperature dependence of translocation, vascular segments were incubated with 10.0 µM of biotin labeled R7 solutions at 37°C or 4°C. To determine the disappearance time course of translocated R7. vascular segments were incubated with biotin labeled R7 solutions (10.0 µM) at 37°C for 30 minutes, and then reincubated in DMEM with 10% FBS up to 5 days. Vascular segments were harvested at 1, 2 and 5 days after initial incubation.

[2] = test system: human umbilical vein endothelial cells (ECV304); experiment: In vitro translocation of biotin-labeled peptides into endothelial cells; format: cell-based; details: control treatments, 30 minutes incubation (peptides 0.1, 1.0, and 10.0 µM)
Method: In the studies described below, transmembrane transport and cellular uptake of oligomers was assessed by incubating cells or tissue with biotin-oligomer conjugates, followed by treatment with horseradish peroxidase (HRP)-conjugated streptavidin and subsequent incubation with DAB (3,3'-diaminobenzidine), a substrate of the enzyme which produces a highly colored product.
Spontaneously transformed human umbilical vein endothelial cells (ECV304, ATCC) were cultured in medium M199 (Irvine Scientific) containing 10% fetal bovine serum (FBS), 100 IU/ml penicillin and 100 µg/ml of streptomycin (Gibco BRL). Confluent cells were washed and placed in serum-free medium. After 2 hours, the cells were incubated in presence of biotin labeled peptides, as bL-R7, or bD-R7, or bL-K7 (0.1, 1.0, and 10.0 µM). After 30 minutes of incubation, cells were washed 3 times with phosphate-buffered saline (PBS), fixed in ethanol/acetone; washed in PBS; incubated for 30 minutes with peroxidase suppressor (ImmunoPure, Pierce) to block endogenous peroxidase activity; and then incubated with 5 µg/ml of horse-radish peroxidase (HRP) conjugated strepavidin (Pierce) for 30 minutes. Substrate of HRP, diaminobenzidine (DAB, Sigma), was added to the cells. The reaction was terminated by washing in distilled water after a 60-second incubation. This experiment was repeated 3 times.

N=C(N)NCCC[C@H](N)C(=O)O [L-arginine]
NO biosynthesis (cytokine-stimulated VSMC; 1 mM for 5 minutes (data not shown)): did not significantly increase NO biosynthesis | elevation of NO production (cytokine-stimulated VSMC; high concentrations, up to 1mM): not observed | NO2 synthesis by cytokine stimulated VSMC (rat VSMC): progressive increase in NO2 synthesis

N=C(N)NCCC[C@@H](NC(=O)[C@@H](CCCNC(=N)N)NC(=O)[C@@H](CCCNC(=N)N)NC(=O)[C@@H](CCCNC(=N)N)NC(=O)[C@@H](CCCNC(=N)N)NC(=O)[C@@H](CCCNC(=N)N)NC(=O)[C@@H](CCCNC(=N)N)NC(=O)CCCC[C@@H]1SC[C@@H]2NC(=O)N[C@@H]21)C(=O)O [bD-r7]
positive staining (internalized biotin) [1]: No significant positive staining was observed | residual nuclear biotin in endothelial and medial cells ([1]; days 1 and 2 after exposure (10.0 µM, 30 minutes)): greater in vascular segments treated with bD-r7 than those treated with bL-R7

N=C(N)NCCC[C@H](NC(=O)[C@H](CCCNC(=N)N)NC(=O)[C@H](CCCNC(=N)N)NC(=O)[C@H](CCCNC(=N)N)NC(=O)[C@H](CCCNC(=N)N)NC(=O)[C@H](CCCNC(=N)N)NC(=O)[C@H](CCCNC(=N)N)NC(=O)CCCC[C@@H]1SC[C@@H]2NC(=O)N[C@@H]21)C(=O)O [bR7, biotin-labeled heptaarginine]
positive staining (internalized biotin) [1]: No significant positive staining was observed

O=C(O)CCCC[C@@H]1SC[C@@H]2NC(=O)N[C@@H]21 [biotin]
internalized biotin signals [2]: No internalized biotin signals were detected
